Calls of active or inactive are those of the source. The rule behind the calls is not given here.
target: T1, Cannabinoid receptor 1 (Homo sapiens, UniProt P21554); assay: Displacement of [3H]-CP55,940 from human CB1 receptor after 60 mins by microscintillation counting analysis; settings: not given
T1 sequence (P21554 whole entry): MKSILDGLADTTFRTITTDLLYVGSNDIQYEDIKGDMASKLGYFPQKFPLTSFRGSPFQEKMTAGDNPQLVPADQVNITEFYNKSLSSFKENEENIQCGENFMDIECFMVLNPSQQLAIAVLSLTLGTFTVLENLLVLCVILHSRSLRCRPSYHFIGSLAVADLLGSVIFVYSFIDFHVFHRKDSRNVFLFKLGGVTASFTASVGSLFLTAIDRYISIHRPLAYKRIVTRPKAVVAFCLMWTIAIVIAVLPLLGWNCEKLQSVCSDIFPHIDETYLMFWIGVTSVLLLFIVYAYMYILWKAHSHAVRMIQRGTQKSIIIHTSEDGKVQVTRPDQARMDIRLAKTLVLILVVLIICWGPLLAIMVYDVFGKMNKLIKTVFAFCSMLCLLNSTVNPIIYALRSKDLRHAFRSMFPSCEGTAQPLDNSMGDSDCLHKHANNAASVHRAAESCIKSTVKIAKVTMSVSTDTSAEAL

Row | SMILES | Ki [nM]
1 | COCCNC(=O)c1c(NC(=O)c2c(F)cccc2C(F)(F)F)sc2c1CCOC2 | > 30000
2 | O=C(Nc1sc2c(c1C(=O)N1CCCCC1)CCOC2)c1ccccc1OC(F)(F)F | 19400
3 | COC1CN(C(=O)c2c(NC(=O)c3ccccc3C(F)(F)F)sc3c2CCOC3)C1 | > 30000

target: T2, Cannabinoid receptor 2 (Homo sapiens, UniProt P34972); assay: Displacement of [3H]-CP55,940 from human CB2 receptor after 60 mins by microscintillation counting analysis; settings: not given
T2 sequence (P34972 whole entry): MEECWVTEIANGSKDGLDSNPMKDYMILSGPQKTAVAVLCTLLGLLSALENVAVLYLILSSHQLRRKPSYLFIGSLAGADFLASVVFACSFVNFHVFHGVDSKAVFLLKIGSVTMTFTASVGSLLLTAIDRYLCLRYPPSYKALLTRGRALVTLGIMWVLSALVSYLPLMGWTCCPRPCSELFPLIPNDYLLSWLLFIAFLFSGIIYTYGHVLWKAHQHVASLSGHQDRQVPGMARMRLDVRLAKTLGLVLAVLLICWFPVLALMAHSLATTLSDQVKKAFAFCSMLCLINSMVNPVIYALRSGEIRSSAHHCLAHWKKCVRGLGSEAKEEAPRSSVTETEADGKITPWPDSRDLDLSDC

Row | SMILES | Ki [nM]
4 | COCCNC(=O)c1c(NC(=O)c2c(F)cccc2C(F)(F)F)sc2c1CCOC2 | 904
5 | O=C(Nc1sc2c(c1C(=O)N1CCCCC1)CCOC2)c1ccccc1OC(F)(F)F | 347
6 | COC1CN(C(=O)c2c(NC(=O)c3ccccc3C(F)(F)F)sc3c2CCOC3)C1 | 899

target: Cannabinoid receptor 2 (Mus musculus) (UniProt P47936); assay: Agonist activity at mouse CB2 receptor after 4 hrs by luciferase reporter gene assay relative to control; assay type: functional; settings: not given
Sequence (P47936 whole entry): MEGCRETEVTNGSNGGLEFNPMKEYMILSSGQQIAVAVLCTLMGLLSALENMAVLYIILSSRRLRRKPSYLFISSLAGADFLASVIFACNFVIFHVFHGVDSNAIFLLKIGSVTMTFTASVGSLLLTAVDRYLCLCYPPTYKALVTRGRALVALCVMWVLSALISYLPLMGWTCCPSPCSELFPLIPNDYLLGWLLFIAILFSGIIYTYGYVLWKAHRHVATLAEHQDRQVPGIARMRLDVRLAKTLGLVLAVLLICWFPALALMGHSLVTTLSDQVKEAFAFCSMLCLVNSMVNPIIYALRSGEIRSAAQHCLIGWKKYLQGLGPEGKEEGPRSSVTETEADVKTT

Row | SMILES | Efficacy [%]
7 | O=C(Nc1sc2c(c1C(=O)N1CCOCC1)CCCC2)c1ccccc1Cl | 107

target: Cannabinoid receptor 2 (Mus musculus, UniProt P47936); assay: Agonist activity at mouse CB2 receptor after 4 hrs by luciferase reporter gene assay; assay type: functional; settings: not given
Sequence (P47936 whole entry): as above

Row | SMILES | EC50 [nM]
8 | O=C(Nc1sc2c(c1C(=O)N1CCOCC1)CCCC2)c1ccccc1Cl | 50

species on record: Homo sapiens; assay: Selectivity ratio of EC50 for human CB1 receptor to EC50 for human CB2 receptor; settings: not given

Row | SMILES | Ratio EC50
9 | COCCNC(=O)c1c(NC(=O)c2c(F)cccc2C(F)(F)F)sc2c1CCOC2 | 385
10 | O=C(Nc1sc2c(c1C(=O)N1CCCCC1)CCOC2)c1ccccc1OC(F)(F)F | 98
11 | O=C(Nc1sc2c(c1C(=O)N1CCOCC1)CCCC2)c1ccccc1Cl | 25
12 | COC1CN(C(=O)c2c(NC(=O)c3ccccc3C(F)(F)F)sc3c2CCOC3)C1 | 387
13 | O=C(Nc1sc2c(c1C(=O)NCC1CC1)CCOC2)c1c(F)cccc1C(F)(F)F | 74
14 | Cc1ccccc1C(=O)Nc1sc2c(c1C(=O)N1CCOCC1)CCOC2 | 12

target: T1, Cannabinoid receptor 1; assay: Agonist activity at human CB1 receptor after 4 hrs by luciferase reporter gene assay; assay type: functional; settings: not given

Row | SMILES | EC50 [nM]
15 | COCCNC(=O)c1c(NC(=O)c2c(F)cccc2C(F)(F)F)sc2c1CCOC2 | 9360
16 | O=C(Nc1sc2c(c1C(=O)N1CCCCC1)CCOC2)c1ccccc1OC(F)(F)F | 925
17 | O=C(Nc1sc2c(c1C(=O)N1CCOCC1)CCCC2)c1ccccc1Cl | 251
18 | COC1CN(C(=O)c2c(NC(=O)c3ccccc3C(F)(F)F)sc3c2CCOC3)C1 | 5960
19 | O=C(Nc1sc2c(c1C(=O)NCC1CC1)CCOC2)c1c(F)cccc1C(F)(F)F | 812
20 | Cc1ccccc1C(=O)Nc1sc2c(c1C(=O)N1CCOCC1)CCOC2 | 7450

target: T1, Cannabinoid receptor 1; assay: Agonist activity at human CB1 receptor after 4 hrs by luciferase reporter gene assay relative to control; assay type: functional; settings: not given

Row | SMILES | Efficacy [%]
21 | COCCNC(=O)c1c(NC(=O)c2c(F)cccc2C(F)(F)F)sc2c1CCOC2 | 58
22 | O=C(Nc1sc2c(c1C(=O)N1CCCCC1)CCOC2)c1ccccc1OC(F)(F)F | 85
23 | O=C(Nc1sc2c(c1C(=O)N1CCOCC1)CCCC2)c1ccccc1Cl | 77
24 | COC1CN(C(=O)c2c(NC(=O)c3ccccc3C(F)(F)F)sc3c2CCOC3)C1 | 53
25 | O=C(Nc1sc2c(c1C(=O)NCC1CC1)CCOC2)c1c(F)cccc1C(F)(F)F | 90
26 | Cc1ccccc1C(=O)Nc1sc2c(c1C(=O)N1CCOCC1)CCOC2 | 97

target: T2, Cannabinoid receptor 2; assay: Agonist activity at human CB2 receptor after 4 hrs by luciferase reporter gene assay relative to control; assay type: functional; settings: not given

Row | SMILES | Efficacy [%]
27 | COCCNC(=O)c1c(NC(=O)c2c(F)cccc2C(F)(F)F)sc2c1CCOC2 | 96
28 | O=C(Nc1sc2c(c1C(=O)N1CCCCC1)CCOC2)c1ccccc1OC(F)(F)F | 101
29 | O=C(Nc1sc2c(c1C(=O)N1CCOCC1)CCCC2)c1ccccc1Cl | 95
30 | COC1CN(C(=O)c2c(NC(=O)c3ccccc3C(F)(F)F)sc3c2CCOC3)C1 | 98
31 | O=C(Nc1sc2c(c1C(=O)NCC1CC1)CCOC2)c1c(F)cccc1C(F)(F)F | 112
32 | Cc1ccccc1C(=O)Nc1sc2c(c1C(=O)N1CCOCC1)CCOC2 | 105

target: T2, Cannabinoid receptor 2; assay: Agonist activity at human CB2 receptor after 4 hrs by luciferase reporter gene assay; assay type: functional; settings: not given

Row | SMILES | EC50 [nM]
33 | COCCNC(=O)c1c(NC(=O)c2c(F)cccc2C(F)(F)F)sc2c1CCOC2 | 24
34 | O=C(Nc1sc2c(c1C(=O)N1CCCCC1)CCOC2)c1ccccc1OC(F)(F)F | 9.5
35 | O=C(Nc1sc2c(c1C(=O)N1CCOCC1)CCCC2)c1ccccc1Cl | 10
36 | COC1CN(C(=O)c2c(NC(=O)c3ccccc3C(F)(F)F)sc3c2CCOC3)C1 | 15
37 | O=C(Nc1sc2c(c1C(=O)NCC1CC1)CCOC2)c1c(F)cccc1C(F)(F)F | 11
38 | Cc1ccccc1C(=O)Nc1sc2c(c1C(=O)N1CCOCC1)CCOC2 | 646

test system: Mus musculus; assay: Analgesic activity in NMRI mouse assessed as inhibition of acetic acid-induced writhing at 30 mg/kg, po measured for 30 mins relative to vehicle-treated control; assay type: functional; settings: not given

Row | SMILES | inhibition
39 | COCCNC(=O)c1c(NC(=O)c2c(F)cccc2C(F)(F)F)sc2c1CCOC2 | inactive
40 | O=C(Nc1sc2c(c1C(=O)N1CCCCC1)CCOC2)c1ccccc1OC(F)(F)F | inactive

same assay, conditions: 0.5 h

Row | SMILES | inhibition in vivo at 30 mg/kg [%]
41 | COC1CN(C(=O)c2c(NC(=O)c3ccccc3C(F)(F)F)sc3c2CCOC3)C1 | 15

target: Cannabinoid receptor 1 (Rattus norvegicus, UniProt P20272); assay: Displacement of [3H]-CP55,940 from rat CB1 receptor after 60 mins by microscintillation counting analysis; settings: not given
Sequence (P20272 whole entry): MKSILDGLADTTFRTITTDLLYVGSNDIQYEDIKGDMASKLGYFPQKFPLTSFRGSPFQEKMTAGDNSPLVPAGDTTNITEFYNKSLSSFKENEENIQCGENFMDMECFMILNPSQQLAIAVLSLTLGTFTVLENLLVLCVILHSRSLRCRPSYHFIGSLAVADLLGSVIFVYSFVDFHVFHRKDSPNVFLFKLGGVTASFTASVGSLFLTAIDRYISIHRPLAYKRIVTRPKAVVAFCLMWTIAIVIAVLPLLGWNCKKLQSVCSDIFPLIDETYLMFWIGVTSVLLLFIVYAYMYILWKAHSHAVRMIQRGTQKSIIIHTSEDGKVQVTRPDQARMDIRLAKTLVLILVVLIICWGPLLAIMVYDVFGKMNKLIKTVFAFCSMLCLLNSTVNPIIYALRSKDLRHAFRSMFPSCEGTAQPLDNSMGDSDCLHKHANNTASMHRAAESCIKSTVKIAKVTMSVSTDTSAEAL

Row | SMILES | Ki [nM]
42 | COCCNC(=O)c1c(NC(=O)c2c(F)cccc2C(F)(F)F)sc2c1CCOC2 | > 30000
43 | O=C(Nc1sc2c(c1C(=O)N1CCCCC1)CCOC2)c1ccccc1OC(F)(F)F | 22600
44 | COC1CN(C(=O)c2c(NC(=O)c3ccccc3C(F)(F)F)sc3c2CCOC3)C1 | > 30000

test system: not listed separately; assay: Half life in mouse liver microsomes; assay type: ADME, Microsome; settings: not given

Row | SMILES | half-life [min]
45 | COCCNC(=O)c1c(NC(=O)c2c(F)cccc2C(F)(F)F)sc2c1CCOC2 | 21
46 | O=C(Nc1sc2c(c1C(=O)N1CCCCC1)CCOC2)c1ccccc1OC(F)(F)F | 10
47 | COC1CN(C(=O)c2c(NC(=O)c3ccccc3C(F)(F)F)sc3c2CCOC3)C1 | 37.3

target: T3, Cannabinoid receptor 2 (Rattus norvegicus, UniProt Q9QZN9); assay: Displacement of [3H]-CP55,940 from rat CB2 receptor after 60 mins by microscintillation counting analysis; settings: not given
T3 sequence (Q9QZN9 whole entry): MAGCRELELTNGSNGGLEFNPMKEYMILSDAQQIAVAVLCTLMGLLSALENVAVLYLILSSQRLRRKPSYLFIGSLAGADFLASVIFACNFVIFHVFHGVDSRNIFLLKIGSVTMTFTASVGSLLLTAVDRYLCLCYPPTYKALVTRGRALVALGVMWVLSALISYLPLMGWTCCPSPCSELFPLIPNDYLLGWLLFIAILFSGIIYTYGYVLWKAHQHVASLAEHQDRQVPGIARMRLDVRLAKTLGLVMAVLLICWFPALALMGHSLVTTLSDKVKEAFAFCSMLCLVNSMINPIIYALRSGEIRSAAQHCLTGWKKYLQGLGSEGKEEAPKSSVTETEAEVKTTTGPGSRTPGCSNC

Row | SMILES | Ki [nM]
48 | COCCNC(=O)c1c(NC(=O)c2c(F)cccc2C(F)(F)F)sc2c1CCOC2 | 1700
49 | O=C(Nc1sc2c(c1C(=O)N1CCCCC1)CCOC2)c1ccccc1OC(F)(F)F | 2130
50 | COC1CN(C(=O)c2c(NC(=O)c3ccccc3C(F)(F)F)sc3c2CCOC3)C1 | 3110

test system: not listed separately; assay: Half life in rat liver microsomes; assay type: ADME, Microsome; settings: not given

Row | SMILES | half-life [min]
51 | COCCNC(=O)c1c(NC(=O)c2c(F)cccc2C(F)(F)F)sc2c1CCOC2 | 13.6
52 | O=C(Nc1sc2c(c1C(=O)N1CCCCC1)CCOC2)c1ccccc1OC(F)(F)F | 3.52
53 | COC1CN(C(=O)c2c(NC(=O)c3ccccc3C(F)(F)F)sc3c2CCOC3)C1 | 50.4

From ChEMBL document CHEMBL2203203, “Structure-activity relationships of 2-arylamido-5,7-dihydro-4H-thieno[2,3-c]pyran-3-carboxamide derivatives as cannabinoid receptor agonists and their analgesic action” (Bioorg Med Chem Lett, 2012)
